Assay: In vivo metabolic rates of cationic lipids (cationic lipid content in liver by HPLC-CAD)
Conditions: 5 ug EPO-mRNA-lipid nanoparticles, tail vein injection, female Balb/c mice, 1 h to 48 h after injection, compared with DLin-MC3-DMA
Protocol: 5 ug EPO-mRNA-lipid nanoparticles were injected via tail vein injection in 6-8 week old female Balb/c mice, prepared as in Example 13. After injection, the mice were executed at different time points (1 h, 3 h, 6 h, 24 h, 48 h after injection). The livers were taken and crushed, and the lipids were extracted from them with chloroform in three times, and the extracts were finally combined. After spin distillation to remove chloroform, methanol was added to dissolve the sample, and the cationic lipid content therein was analyzed by HPLC-CAD (Thermo Vanquish), with an Acclaim™ C18 column as the analytical column, a 0.5% TEAA aqueous solution as mobile phase A and a 0.5% TEAA methanol solution as mobile phase B. The sample was eluted according to the gradient in Table 2 below.

Question: For `CCCCCCCCCSC(=O)CCCCCCCN(CCO)CCCCCCCC(=O)SC(CCCCCCCC)CCCCCCCC` [Compound 9], which “In vivo metabolism rate of cationic lipid (FIG. 3)” value is on record?
Answer: metabolized in vivo faster than DLin-MC3-DMA
